The target of this assay is T1, Aromatase (Homo sapiens, UniProt P11511).
T1 sequence (P11511 whole entry): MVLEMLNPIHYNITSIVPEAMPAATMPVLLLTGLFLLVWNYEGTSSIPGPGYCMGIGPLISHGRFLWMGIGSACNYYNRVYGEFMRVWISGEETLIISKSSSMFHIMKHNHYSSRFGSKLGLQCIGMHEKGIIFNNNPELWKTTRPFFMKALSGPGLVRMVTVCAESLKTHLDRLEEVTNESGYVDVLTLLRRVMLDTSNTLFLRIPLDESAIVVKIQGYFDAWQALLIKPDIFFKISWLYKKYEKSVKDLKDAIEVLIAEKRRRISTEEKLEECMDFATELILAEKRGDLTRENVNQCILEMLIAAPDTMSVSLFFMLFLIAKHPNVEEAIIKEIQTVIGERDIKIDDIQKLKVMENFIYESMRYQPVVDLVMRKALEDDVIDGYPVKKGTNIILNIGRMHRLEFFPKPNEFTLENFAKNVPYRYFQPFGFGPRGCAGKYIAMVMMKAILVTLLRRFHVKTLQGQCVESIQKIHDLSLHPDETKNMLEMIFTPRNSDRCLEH
For orientation: IC50 means the midpoint of a concentration-inhibition curve. The low end stands for greater potency in that assay, the high end for weaker potency in that assay. `CCCCS[C@@H]1CC2=CC(=O)CC[C@]2(C)[C@H]2CC[C@]3(C)C(=O)CC[C@H]3[C@H]12` had an IC50 of 57 nM. This lies in the double-digit nanomolar range.

With `C[C@]12CCC(=O)C=C1C[C@@H](SCc1ccccc1)[C@@H]1[C@@H]2CC[C@]2(C)C(=O)CC[C@@H]12`, half-maximal inhibition (IC50) was put at 69 nM. Take `C[C@]12CCC(=O)C=C1C[C@@H](SCCc1ccccc1)[C@@H]1[C@@H]2CC[C@]2(C)C(=O)CC[C@@H]12`: it took 61.9 nM to reach half-maximal inhibition (IC50). In turn, `COc1ccc(CS[C@@H]2CC3=CC(=O)CC[C@]3(C)[C@H]3CC[C@]4(C)C(=O)CC[C@H]4[C@H]23)cc1` showed an IC50 of 31 nM. The same measure for `C[C@]12CCC(=O)C=C1C[C@@H](Sc1ccc(N)cc1)[C@@H]1[C@@H]2CC[C@]2(C)C(=O)CC[C@@H]12`: 160 nM; for `C[C@]12CC[C@@H]3c4ccc(O)c(NC(=O)c5ccncc5)c4CC[C@H]3[C@@H]1CCC2=O`: 28600 nM; for `CCCCCCCC[C@H]1C[C@@H]2[C@H](CC[C@]3(C)C(=O)CC[C@@H]23)[C@@]2(C)CCC(=O)C=C12`: 5110 nM. Consider `CCCCC[C@@H]1C[C@@H]2[C@H](CC[C@]3(C)C(=O)CC[C@@H]23)[C@@]2(C)C=CC(=O)C=C12`, for which the IC50 is 54 nM. The same measure for `CCCC[C@@H]1C[C@@H]2[C@H](CC[C@]3(C)C(=O)CC[C@@H]23)[C@@]2(C)CCC(=O)C=C12`: 511 nM; for `CCCCC[C@H]1C[C@@H]2[C@H](CC[C@]3(C)C(=O)CC[C@@H]23)[C@@]2(C)CCC(=O)C=C12`: 400 nM.

`CCCCC[C@@H]1C[C@@H]2[C@H](CC[C@]3(C)C(=O)CC[C@@H]23)[C@@]2(C)CCC(=O)C=C12` had an IC50 of 230 nM. The same measure for `CC[C@@H]1C[C@@H]2[C@H](CC[C@]3(C)C(=O)CC[C@@H]23)[C@@]2(C)CCC(=O)C=C12`: 140 nM. The same measure for `COC1=C[C@@]2(C)C(=CC1=O)CC[C@@H]1[C@@H]2CC[C@]2(C)C(=O)CC[C@@H]12`: 1100 nM; for `C[C@]12C=C(CCCc3ccccc3)C(=O)C=C1CC[C@@H]1[C@@H]2CC[C@]2(C)C(=O)CC[C@@H]12`: 145 nM; for `CC[C@@H]1C[C@@H]2[C@H](CC[C@]3(C)C(=O)CC[C@@H]23)[C@@]2(C)C=CC(=O)C=C12`: 54 nM. As for `CCCCCC[C@H]1C[C@@H]2[C@H](CC[C@]3(C)C(=O)CC[C@@H]23)[C@@]2(C)CCC(=O)C=C12`, the figure is 1000 nM; as for `C[C@@H]1C[C@@H]2[C@H](CC[C@]3(C)C(=O)CC[C@@H]23)[C@@]2(C)CCC(=O)C=C12`, 719 nM. The molecule `C[C@]12CCC(=O)C=C1C=C(c1ccccc1)[C@@H]1[C@@H]2CC[C@]2(C)C(=O)CC[C@@H]12` had an IC50 of 1430 nM. Compared with the last molecule, the IC50 is about 2-fold higher. The same measure for `CCCCCC[C@@H]1C[C@@H]2[C@H](CC[C@]3(C)C(=O)CC[C@@H]23)[C@@]2(C)CCC(=O)C=C12`: 430 nM. On to `CCCCCCCC[C@@H]1C[C@@H]2[C@H](CC[C@]3(C)C(=O)CC[C@@H]23)[C@@]2(C)CCC(=O)C=C12`, for which half-maximal inhibition (IC50) required 1800 nM.

Molecule `CCCCOC1=C[C@@]2(C)C(=CC1=O)CC[C@@H]1[C@@H]2CC[C@]2(C)C(=O)CC[C@@H]12` gave an IC50 of 29600 nM. This IC50 is about 16-fold higher than that of the molecule before.

As to `CCCC[C@H]1C[C@@H]2[C@H](CC[C@]3(C)C(=O)CC[C@@H]23)[C@@]2(C)C=CC(=O)C=C12`, the IC50 is 200 nM. The same measure for `CCC[C@H]1C[C@@H]2[C@H](CC[C@]3(C)C(=O)CC[C@@H]23)[C@@]2(C)C=CC(=O)C=C12`: 270 nM; for `C[C@]12CC[C@@H]3c4ccc(O)c(NC(=O)c5cccnc5)c4CC[C@H]3[C@@H]1CCC2=O`: 95700 nM; for `C[C@]12C[C@@H](CCc3ccccc3)C(=O)C=C1CC[C@@H]1[C@@H]2CC[C@]2(C)C(=O)CC[C@@H]12`: 126000 nM.

`CCC[C@@H]1C[C@@]2(C)C(=CC1=O)CC[C@@H]1[C@@H]2CC[C@]2(C)C(=O)CC[C@@H]12` gave an IC50 of 1460 nM. The same measure for `CCCCC1=C[C@@]2(C)C(=CC1=O)CC[C@@H]1[C@@H]2CC[C@]2(C)C(=O)CC[C@@H]12`: 1840 nM; for `Cc1ccc(CC[C@@H]2C[C@@]3(C)C(=CC2=O)CC[C@@H]2[C@@H]3CC[C@]3(C)C(=O)CC[C@@H]23)cc1`: 38800 nM; for `CCCCC[C@H]1C[C@@H]2[C@H](CC[C@]3(C)C(=O)CC[C@@H]23)[C@@]2(C)C=CC(=O)C=C12`: 140 nM.

With `C[C@]12C[C@@H](CCCc3ccccc3)C(=O)C=C1CC[C@@H]1[C@@H]2CC[C@]2(C)C(=O)CC[C@@H]12`, the IC50 was 50200 nM. The same measure for `CCCCCCC1=C[C@@]2(C)C(=CC1=O)CC[C@@H]1[C@@H]2CC[C@]2(C)C(=O)CC[C@@H]12`: 298 nM; for `Cc1ccc(CCC2=C[C@@]3(C)C(=CC2=O)CC[C@@H]2[C@@H]3CC[C@]3(C)C(=O)CC[C@@H]23)cc1`: 6350 nM. As for `CCCC[C@@H]1C[C@@]2(C)C(=CC1=O)CC[C@@H]1[C@@H]2CC[C@]2(C)C(=O)CC[C@@H]12`, the figure is 1930 nM; as for `C[C@]12C=C(CCCCc3ccccc3)C(=O)C=C1CC[C@@H]1[C@@H]2CC[C@]2(C)C(=O)CC[C@@H]12`, 34200 nM; as for `CCCCCC[C@H]1C[C@@H]2[C@H](CC[C@]3(C)C(=O)CC[C@@H]23)[C@@]2(C)C=CC(=O)C=C12`, 280 nM. The same measure for `CCCCCC[C@@H]1C[C@@]2(C)C(=CC1=O)CC[C@@H]1[C@@H]2CC[C@]2(C)C(=O)CC[C@@H]12`: 10400 nM; for `C[C@]12C=C(Cc3ccccc3)C(=O)C=C1CC[C@@H]1[C@@H]2CC[C@]2(C)C(=O)CC[C@@H]12`: 86500 nM; for `C[C@]12C[C@@H](Cc3ccccc3)C(=O)C=C1CC[C@@H]1[C@@H]2CC[C@]2(C)C(=O)CC[C@@H]12`: 466000 nM. `CCCC[C@@H]1C[C@@H]2[C@H](CC[C@]3(C)C(=O)CC[C@@H]23)[C@@]2(C)C=CC(=O)C=C12` gave an IC50 of 180 nM. This IC50 is about 2600-fold lower than that of the molecule before. The same measure for `CCCCCCCC1=C[C@@]2(C)C(=CC1=O)CC[C@@H]1[C@@H]2CC[C@]2(C)C(=O)CC[C@@H]12`: 605 nM.

Molecule `CCOC1=C[C@@]2(C)C(=CC1=O)CC[C@@H]1[C@@H]2CC[C@]2(C)C(=O)CC[C@@H]12` had an IC50 of 17600 nM. Molecule `C[C@]12CC[C@@H]3c4cc(NC(=O)c5cccnc5)c(O)cc4CC[C@H]3[C@@H]1CCC2=O` gave an IC50 of 75300 nM. This IC50 lies about 4.3-fold higher than the previous one. The same measure for `CC[C@H]1C[C@@H]2[C@H](CC[C@]3(C)C(=O)CC[C@@H]23)[C@@]2(C)C=CC(=O)C=C12`: 250 nM; for `C[C@]12CC[C@@H]3c4cc(NC(=O)c5ccccn5)c(O)cc4CC[C@H]3[C@@H]1CCC2=O`: 209000 nM.

Molecule `C[C@]12C=C(CCc3ccccc3)C(=O)C=C1CC[C@@H]1[C@@H]2CC[C@]2(C)C(=O)CC[C@@H]12` showed an IC50 of 2570 nM. As for `CCCCCCC[C@H]1C[C@@H]2[C@H](CC[C@]3(C)C(=O)CC[C@@H]23)[C@@]2(C)C=CC(=O)C=C12`, the figure is 250 nM; as for `C[C@]12C=C(CCc3ccc(C(F)(F)F)cc3)C(=O)C=C1CC[C@@H]1[C@@H]2CC[C@]2(C)C(=O)CC[C@@H]12`, 34100 nM; as for `CCCCCC[C@@H]1C[C@@H]2[C@H](CC[C@]3(C)C(=O)CC[C@@H]23)[C@@]2(C)C=CC(=O)C=C12`, 76 nM.

Regarding `C[C@]12C[C@@H](CCc3ccc(C(F)(F)F)cc3)C(=O)C=C1CC[C@@H]1[C@@H]2CC[C@]2(C)C(=O)CC[C@@H]12`, the 50% inhibitory concentration (IC50) is 46600 nM.

Molecule `CCCCC[C@@H]1C[C@@]2(C)C(=CC1=O)CC[C@@H]1[C@@H]2CC[C@]2(C)C(=O)CC[C@@H]12` had an IC50 of 1280 nM. Regarding `CCCC1=C[C@@]2(C)C(=CC1=O)CC[C@@H]1[C@@H]2CC[C@]2(C)C(=O)CC[C@@H]12`, half-maximal inhibition (IC50) was put at 1750 nM. The same measure for `C[C@]12CC[C@@H]3c4ccc(OC(=O)c5ccno5)cc4CC[C@H]3[C@@H]1CCC2=O`: 244000 nM; for `CCC1=C[C@@]2(C)C(=CC1=O)CC[C@@H]1[C@@H]2CC[C@]2(C)C(=O)CC[C@@H]12`: 959 nM. Turning to `CCC[C@@H]1C[C@@H]2[C@H](CC[C@]3(C)C(=O)CC[C@@H]23)[C@@]2(C)C=CC(=O)C=C12`, it took 60 nM to reach half-maximal inhibition (IC50). The same measure for `CCC[C@@H]1C[C@@H]2[C@H](CC[C@]3(C)C(=O)CC[C@@H]23)[C@@]2(C)CCC(=O)C=C12`: 240 nM. Molecule `C[C@]12CC[C@@H]3c4ccc(O)c(NC(=O)c5ccccn5)c4CC[C@H]3[C@@H]1CCC2=O` gave an IC50 of 203000 nM. As for `CCCCCCC[C@@H]1C[C@@H]2[C@H](CC[C@]3(C)C(=O)CC[C@@H]23)[C@@]2(C)C=CC(=O)C=C12`, the figure is 60 nM; as for `CCCCCC1=C[C@@]2(C)C(=CC1=O)CC[C@@H]1[C@@H]2CC[C@]2(C)C(=O)CC[C@@H]12`, 743 nM; as for `C[C@]12C=C(Br)C(=O)C=C1CC[C@@H]1[C@@H]2CC[C@]2(C)C(=O)CC[C@@H]12`, 1840 nM. As for `C[C@]12C[C@@H](CCCCc3ccccc3)C(=O)C=C1CC[C@@H]1[C@@H]2CC[C@]2(C)C(=O)CC[C@@H]12`, the figure is 222000 nM.

(Values after ChEMBL document CHEMBL5241054, “Effective anti-aromatase therapy to battle against estrogen-mediated breast cancer: Comparative SAR/QSAR assessment on steroidal aromatase inhibitors” (Eur J Med Chem, 2020).)
